The values that follow come from ChEMBL document CHEMBL2029239, “Identification, design and biological evaluation of bisaryl quinolones targeting Plasmodium falciparum type II NADH:quinone oxidoreductase (PfNDH2)” (J Med Chem, 2012).

A word on the IC50: it is the point on the concentration scale where inhibition reaches its midpoint.

The subject of experiment [1] is Plasmodium falciparum. As to the kind of experiment: Antimalarial activity against blood stage forms of Plasmodium falciparum 3D7. Format: functional, organism-based.
Experiment [2] in a line: Inhibition of Plasmodium falciparum recombinant NDH2 expressed in Escherichia coli F571 using decyclubiquinone as substrate at 1 min by spectrophotometry.
Experiment [3] has as its system Plasmodium falciparum. Description: Antimalarial activity against atoquinone-resistant Plasmodium falciparum TM90C2B. Format: functional, organism-based.
A short description of experiment [4]: Inhibition of Plasmodium falciparum cytochrome b-c1 complex using decylubiquinol as substrate by spectrophotometry.
For experiment [5], the system named is Plasmodium falciparum. Description: Antimalarial activity against chloroquine-resistant Plasmodium falciparum W2. Format: functional, organism-based.

In experiment [1], `COc1ccc(-c2cc(=O)c3ccccc3[nH]2)cc1` came in with an IC50 of over 1000 nM.
Turning to `O=c1c(-c2ccc(Oc3ccc(OC(F)(F)F)cc3)cc2)c(CO)[nH]c2ccccc12`, the 50% inhibitory concentration (IC50) in experiment [1] was 91 nM; in experiment [2], over 56000 nM.
The matching figures for `Cc1c(-c2ccc(C(F)(F)F)cc2)[nH]c2ccccc2c1=O`: 752 nM and 88.5 nM.
In turn, `Cc1c(-c2ccc(OC(F)(F)F)cc2)[nH]c2ccccc2c1=O` gave a 50% inhibitory concentration (IC50) in experiment [1] of over 1000 nM.
In turn, `Cc1c(-c2ccc(C(F)(F)F)cc2)[nH]c2ncccc2c1=O` showed a 50% inhibitory concentration (IC50) in experiment [1] of over 1000 nM.
Still for that read-out and setting: next, `Cc1c(-c2ccc(OC(F)(F)F)cc2)[nH]c2ncccc2c1=O`: over 1000 nM; `COc1ccc(-c2[nH]c3ncccc3c(=O)c2C)cc1`: over 1000 nM; `Cc1c(-c2ccc(Br)cc2)[nH]c2ncccc2c1=O`: over 1000 nM.
`O=c1cc(-c2ccc(C(F)(F)F)cc2)[nH]c2ccccc12`: the IC50 was found to be 579 nM in experiment [1] and 52.9 nM in experiment [2].
In the case of `O=c1cc(-c2ccc(OC(F)(F)F)cc2)[nH]c2ccccc12`, the half-maximal inhibitory concentration (IC50) in experiment [1] was determined as 675 nM; in experiment [2], 47.9 nM.
In turn, `O=c1cc(-c2ccc(O)cc2)[nH]c2ccccc12` registered a half-inhibitory concentration (IC50) in experiment [1] of over 1000 nM.
On to `O=c1c(Cl)c(-c2ccc(OC(F)(F)F)cc2)[nH]c2ccccc12`, for which the figures for the half-maximal inhibitory concentration (IC50) in experiment [1] and in experiment [2] were 513 nM and 253 nM, respectively.
Take `COc1ccc(-c2[nH]c3ccccc3c(=O)c2Cl)cc1`: the IC50 in experiment [1] was found to be 560 nM; in experiment [2] it was 1670 nM.
In the case of `Cc1c(-c2ccc(Cc3ccccc3)cc2)[nH]c2ccccc2c1=O`, the 50% inhibitory concentration (IC50) was 107 nM in experiment [1], 27.4 nM in experiment [2] and 416 nM in experiment [3].
In the case of `Cc1c(-c2cccc(Cc3ccc(OC(F)(F)F)cc3)c2)[nH]c2ccccc2c1=O`, the IC50 in experiment [1] was found to be 26 nM; in experiment [2], 50 nM; in experiment [4], 219 nM; in experiment [3], 65 nM.
The matching figures for `Cc1c(-c2ccc(Cc3ccc(F)cc3)cc2)[nH]c2ccccc2c1=O`: 83 nM, under 1 nM, 25.5 nM and 273 nM.
Take `COc1ccc(Cc2ccc(-c3[nH]c4ccccc4c(=O)c3C)cc2)cc1`: the IC50 was found to be 37 nM in experiment [1], 113 nM in experiment [2] and 577 nM in experiment [3].
Turning to `Cc1c(-c2ccc(Cc3ccc(OC(F)(F)F)cc3)cc2)[nH]c2ccc(C(F)(F)F)cc2c1=O`, inhibition in experiment [1] was half-maximal at 654 nM (IC50).
Turning to `Cc1c(-c2ccc(Cc3ccc(OC(F)(F)F)cc3)cc2)[nH]c2cc(C(F)(F)F)ccc2c1=O`, the 50% inhibitory concentration (IC50) in experiment [1] worked out at 212 nM.
`Cc1c(-c2ccc(Cc3ccc(OC(F)(F)F)cc3)cc2)[nH]c2cc(F)c(Cl)cc2c1=O` displayed a 50% inhibitory concentration (IC50) in experiment [1] of 70 nM.
`Cc1c(-c2ccc(Cc3ccc(OC(F)(F)F)cc3)cc2)[nH]c2cc(Cl)c(F)cc2c1=O` showed an IC50 in experiment [1] of 38 nM.
On the same count and under the same terms, for `COc1cccc2[nH]c(-c3ccc(Cc4ccc(OC(F)(F)F)cc4)cc3)c(C)c(=O)c12` the value was 664 nM; for `COc1ccc2[nH]c(-c3ccc(Cc4ccc(OC(F)(F)F)cc4)cc3)c(C)c(=O)c2c1`, 465 nM.
With `COc1ccc2c(=O)c(C)c(-c3ccc(Cc4ccc(OC(F)(F)F)cc4)cc3)[nH]c2c1`, the IC50 in experiment [1] turned out to be 8 nM; in experiment [5], 13 nM.
Take `COc1cccc2c(=O)c(C)c(-c3ccc(Cc4ccc(OC(F)(F)F)cc4)cc3)[nH]c12`: the IC50 in experiment [1] turned out to be 381 nM.
With `Cc1c(-c2cccc(Cc3ccc(OC(F)(F)F)cc3)c2)[nH]c2ccc(Cl)cc2c1=O`, the half-inhibitory concentration (IC50) in experiment [1] turned out to be 8.4 nM; in experiment [3], 31 nM.
For `Cc1c(-c2cccc(Cc3ccc(OC(F)(F)F)cc3)c2)[nH]c2cc(Cl)ccc2c1=O` the same measures were 34 nM and 94 nM.
Turning to `Cc1c(-c2ccc(Cc3ccc(F)cc3)cc2)[nH]c2cc(Cl)ccc2c1=O`, the half-inhibitory concentration (IC50) in experiment [2] amounted to 196 nM.
Molecule `Cc1c(-c2ccc(Cc3ccc(OC(F)(F)F)cc3)cc2F)[nH]c2cc(Cl)ccc2c1=O` had an IC50 in experiment [1] of 30 nM.
With `Cc1c(-c2ccc(Oc3ccc(Cl)cc3)cc2)[nH]c2ccccc2c1=O`, the IC50 worked out at 230 nM in experiment [1], 36 nM in experiment [2] and 797 nM in experiment [3].
With `Cc1c(-c2ccc(Cc3ccc(OC(F)(F)F)cc3)cc2)[nH]c2ccc(O)cc2c1=O`, the midpoint of inhibition in experiment [1], the IC50, lay at 465 nM.
In experiment [1], `Cc1c(-c2ccc(Cc3ccc(OC(F)(F)F)cc3)cc2)[nH]c2cc(O)ccc2c1=O` gave a half-inhibitory concentration (IC50) of 139 nM.
The same measure, in the same setting: next, `Cc1c(-c2ccc(Cc3ccc(OC(F)(F)F)cc3)cc2)[nH]c2c(O)cccc2c1=O`: 819 nM.
In experiment [1], `CC(=O)Oc1cccc2c(=O)c(C)c(-c3ccc(Cc4ccc(OC(F)(F)F)cc4)cc3)[nH]c12` yielded an IC50 of 408 nM.
On to `Cc1c(-c2ccc(Cc3ccc(OC(F)(F)F)cc3)cc2)[nH]c2ncccc2c1=O`, for which the IC50 turned out to be 407 nM in experiment [1], 97 nM in experiment [2] and 1880 nM in experiment [3].
With `Cc1c(-c2ccc(Cc3ccc(OC(F)(F)F)cc3)cc2)[nH]c2cc(F)ccc2c1=O`, the results for the IC50 in experiment [1], in experiment [2] and in experiment [3] were 69 nM, 12.1 nM and 191 nM, respectively.
With `Cc1c(-c2ccc(Cc3ccc(OC(F)(F)F)cc3)cc2)[nH]c2cc(F)c(F)cc2c1=O`, the half-inhibitory concentration (IC50) in experiment [1] is 24 nM; in experiment [2], 30.9 nM; in experiment [3], 207 nM.
`Cc1c(-c2ccc(Cc3ccc(F)cc3)cc2)[nH]c2ncccc2c1=O` had a half-maximal inhibitory concentration (IC50) in experiment [1] of 506 nM.
In the case of `O=c1cc(-c2ccc(Cc3ccc(OC(F)(F)F)cc3)cc2)[nH]c2ccccc12`, the IC50 came out at 48 nM in experiment [1]; 6.2 nM in experiment [2]; 13.9 nM in experiment [4]; 251 nM in experiment [3]; 36 nM in experiment [5].
In the case of `O=c1cc(-c2ccc(Cc3ccc(OC(F)(F)F)cc3)cc2)[nH]c2cc(F)c(F)cc12`, the figures for the IC50 in experiment [1] and in experiment [3] were 16 nM and 626 nM, respectively.
`O=c1cc(-c2ccc(Cc3ccc(OC(F)(F)F)cc3)cc2)[nH]c2cc(Cl)c(Cl)cc12`: the figures for the IC50 in experiment [1] and in experiment [2] were 28 nM and 173 nM, respectively.
In turn, `COc1cc2[nH]c(-c3ccc(Cc4ccc(OC(F)(F)F)cc4)cc3)cc(=O)c2cc1F` came in with an IC50 in experiment [1] of 39 nM.
`O=c1cc(-c2ccc(Cc3ccc(OC(F)(F)F)cc3)cc2)[nH]c2ccc(N3CCNCC3)cc12` gave a half-inhibitory concentration (IC50) in experiment [1] of 430 nM.
The same measure, in the same setting: next, `O=c1cc(-c2ccc(Cc3ccc(OC(F)(F)F)cc3)cc2)[nH]c2cc(N3CCNCC3)ccc12`: 443 nM.
Consider `COC(=O)c1ccc(Cc2ccc(-c3cc(=O)c4ccccc4[nH]3)cc2)cc1`, for which the IC50 in experiment [1] was determined as 272 nM; in experiment [2], 19 nM.
For the molecule `O=c1cc(-c2ccc(Cc3ccc(OC(F)(F)F)cc3)cc2)[nH]c2cc(O)c(F)cc12`, in experiment [1], the half-inhibitory concentration (IC50) is over 1000 nM.
In experiment [1], `O=c1cc(-c2ccc(Cc3ccc(CO)cc3)cc2)[nH]c2ccccc12` came in with an IC50 of over 1000 nM.
Turning to `O=c1c(Cl)c(-c2ccc(Cc3ccc(OC(F)(F)F)cc3)cc2)[nH]c2ccccc12`, the half-inhibitory concentration (IC50) in experiment [1] amounted to 19 nM; in experiment [2] it was 137 nM; in experiment [3] it was 328 nM; in experiment [5], 22 nM.
Turning to `Cc1[nH]c2ccccc2c(=O)c1-c1ccc(Cc2ccc(OC(F)(F)F)cc2)cc1`, the results for the half-maximal inhibitory concentration (IC50) in experiment [1], in experiment [2] and in experiment [5] were 36 nM, 492 nM and 42 nM, respectively.
The matching figures for `Cc1[nH]c2ccccc2c(=O)c1-c1ccc(Oc2ccc(OC(F)(F)F)cc2)cc1`: 10 nM, 190 nM and 34 nM.
For the molecule `O=c1c(-c2ccc(Oc3ccc(OC(F)(F)F)cc3)cc2)c[nH]c2ccccc12`, in experiment [1], inhibition was half-maximal at 797 nM (IC50).
`CCOC(=O)c1c(-c2ccc(Cc3ccc(OC(F)(F)F)cc3)cc2)[nH]c2ccccc2c1=O`: the IC50 was 39.6 nM in experiment [1], 268 nM in experiment [2] and 1400 nM in experiment [3].
`CCOC(=O)c1c(-c2ccc(Cc3ccc(OC(F)(F)F)cc3)cc2)[nH]c2cc(Cl)ccc2c1=O`: the 50% inhibitory concentration (IC50) in experiment [1] turned out to be 26 nM; in experiment [3], 92 nM.
The matching figures for `O=c1c(CO)c(-c2ccc(Cc3ccc(OC(F)(F)F)cc3)cc2)[nH]c2cc(Cl)ccc12`: 63 nM and 330 nM.
As for `O=c1c(CO)c(-c2ccc(Oc3ccc(OC(F)(F)F)cc3)cc2)[nH]c2cc(Cl)ccc12`, the half-maximal inhibitory concentration (IC50) in experiment [1] worked out at 200 nM.
Turning to `CCOC(=O)Oc1c(C)c(-c2ccc(Cc3ccc(OC(F)(F)F)cc3)cc2)nc2ccccc12`, the IC50 amounted to 27 nM in experiment [1] and 6.8 nM in experiment [3].
As for `CCOC(=O)Oc1c(-c2ccc(Cc3ccc(OC(F)(F)F)cc3)cc2)c(C)nc2ccccc12`, the half-inhibitory concentration (IC50) in experiment [1] worked out at 27 nM; in experiment [3], 224 nM.
Take `CCOC(=O)Oc1c(C)c(-c2ccc(Oc3ccc(OC(F)(F)F)cc3)cc2)nc2ccccc12`: the figures for the IC50 in experiment [1] and in experiment [3] were 60 nM and 406 nM, respectively.
In the case of `Cc1c(-c2ccc(Cc3ccc(OC(F)(F)F)cc3)cc2)n(O)c2ccccc2c1=O`, the IC50 came to 22 nM in experiment [1], 55.2 nM in experiment [2], 217 nM in experiment [3] and 8 nM in experiment [5].
For `Cc1c(-c2ccc(Cc3ccc(OC(F)(F)F)cc3)cc2)n(O)c2cc(Cl)ccc2c1=O`, the IC50 was 149 nM in experiment [1] and over 1000 nM in experiment [3].
Regarding `Cc1c(-c2ccc(Cc3ccc(OC(F)(F)F)cc3)cc2)c(=O)c2ccccc2n1O`, the IC50 was determined as 175 nM in experiment [1], 13.5 nM in experiment [2] and 670 nM in experiment [3].
For `O=c1cc(-c2ccc(Cc3ccc(OC(F)(F)F)cc3)cc2)n(O)c2ccccc12` the same measures were 263 nM, 71 nM and 403 nM.
For `Cc1c(-c2ccc(Oc3ccc(OC(F)(F)F)cc3)cc2)n(O)c2ccccc2c1=O` the same measures were 35 nM, 108 nM and 566 nM.
As for `Cc1c(-c2ccc(Oc3ccc(OCCN4CCOCC4)cc3)cc2)[nH]c2ccccc2c1=O`, in experiment [1], the half-inhibitory concentration (IC50) is over 1000 nM.
As for `Cc1c(-c2ccc(Oc3cccc(OCCN4CCOCC4)c3)cc2)[nH]c2ccccc2c1=O`, in experiment [1], the 50% inhibitory concentration (IC50) turned out to be 719 nM.
Consider `Cc1c(-c2ccc(Cc3cccc(OCCN4CCOCC4)c3)cc2)[nH]c2ccccc2c1=O`, for which the IC50 in experiment [1] amounted to 355 nM; in experiment [2] it was 279 nM.
